Data taken from US20120251551A1, “Substituted (Heteroarylmethyl)thiohydantoins” (BAYER PHARMA AKTIENGESELLSCHAFT, priority 2009, published 2012).

Assay: Determination of metabolic stability in vitro (calculation of hepatic in vivo blood clearance)
Assay type: in vitro ADME
Details: pH 7.4, human liver microsomes, calculated from half-life, read-out: calculated hepatic in vivo blood clearance (CL) (converted)
Protocol: Determination of Metabolic Stability In Vitro (Including Calculation of Hepatic In Vivo Blood Clearance (CL) and of Maximal Oral Bioavailability (Fmax))
The metabolic stability of test compounds in vitro was determined by incubating them at 1 μM with a suspension of human liver microsomes in 100 mM phosphate buffer, pH7.4 (NaH2PO4×H2O+Na2HPO4×2H2O) at a protein concentration of 0.5 mg/ml and at 37° C. The reaction was activated by adding a co-factor mix containing 1.2 mg NADP, 3 IU glucose-6-phosphate dehydrogenase, 14.6 mg glucose-6-phosphate and 4.9 mg MgCl2 in phosphate buffer, pH 7.4. Organic solvent in the incubations was limited to <0.2% dimethylsulfoxide (DMSO) and <1% methanol. During incubation, the microsomal suspensions were continuously shaken and aliquots were taken at 2, 8, 16, 30, 45 and 60 min, to which equal volumes of cold methanol were immediately added. Samples were freezed at −20° C. over night, subsequently centrifuged for 15 minutes at 3000 rpm and the supernatant was analyzed with an Agilent 1200 HPLC-system with LCMS/MS detection.
The half-life of a test compound was determined from the concentration-time plot. From the half-life the intrinsic clearances were calculated. Together with the additional parameters liver blood flow, specific liver weight and microsomal protein content the hepatic in vivo blood clearance (CL) and the maximal oral bioavailability (Fmax) were calculated for the different species. The following parameter values were used: Liver blood flow—1.3 l/h/kg human; specific liver weight—21 g/kg human; microsomal protein content—40 mg/g.
With the described assay only phase-I metabolism of microsomes is reflected, e.g. typically oxidoreductive reactions by cytochrome P450 enzymes and flavin mono-oxygenases (FMO) and hydrolytic reactions by esterases (esters and amides).
For `CC1(C)C(=O)N(c2ccc(C#N)c(C(F)(F)F)c2)C(=S)N1Cc1ccc(-n2ccnc2)nc1` [Example 1, 4-(3-{[6-(1H-Imidazol-1-yl)pyridin-3-yl]methyl}-4,4-dimethyl-5-oxo-2-thioxoimidazolidin-1-yl)-2-(trifluoromethyl)benzonitrile], the CLhep predicted at 1 µM was 4.33 mL/min/kg. For `CC1(C)C(=O)N(c2ccc(C#N)c(C(F)(F)F)c2)C(=S)N1Cc1ccc(C(F)(F)F)nc1` [Example 2, 4-(4,4-Dimethyl-5-oxo-2-thioxo-3-{[6-(trifluoromethyl)pyridin-3-yl]methyl}imidazolidin-1-yl)-2-(trifluoromethyl)benzonitrile], the CLhep predicted at 1 µM was 6.5 mL/min/kg. In the case of `CC1(C)C(=O)N(c2ccc(C#N)c(C(F)(F)F)c2)C(=S)N1Cc1ccc(N2CCS(=N)(=O)CC2)nc1` [Example 9, 4-(3-{[6-(1-Imino-1-oxido-1λ^6-thiomorpholin-4-yl)pyridin-3-yl]methyl}-4,4-dimethyl-5-oxo-2-thioxoimidazolidin-1-yl)-2-(trifluoromethyl)benzonitrile], the CLhep predicted at 1 µM is reported as 8 mL/min/kg. With `CC(C)(O)COc1ccc(CN2C(=S)N(c3ccc(C#N)c(C(F)(F)F)c3)C(=O)C2(C)C)cn1` [Example 10, 4-(3-{[6-(2-Hydroxy-2-methylpropoxy)pyridin-3-yl]methyl}-4,4-dimethyl-5-oxo-2-thioxoimidazolidin-1-yl)-2-(trifluoromethyl)benzonitrile] the CLhep predicted at 1 µM was 5.83 mL/min/kg. With `Cc1nc(C(F)(F)F)ccc1CN1C(=S)N(c2ccc(C#N)c(C(F)(F)F)c2)C(=O)C1(C)C` [Example 13, 4-(4,4-Dimethyl-3-{[2-methyl-6-(trifluoromethyl)pyridin-3-yl]methyl}-5-oxo-2-thioxoimidazolidin-1-yl)-2-(trifluoromethyl)benzonitrile] the CLhep predicted at 1 µM was 3.17 mL/min/kg.
